Data reported in PubChem BioAssay AID977621 (Broad Institute, 2014).
Results filed as inconclusive are left out. The source made the active and inactive calls.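 The calls were made as follows: active = Wild-type ribosome reporter drop at least double the humanized mutant ribosome reporter drop, growth loss under a set limit; inconclusive = no clear call, values can overlap the other calls; inactive = the rest.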

Tested on: E. coli wild-type GFP strain growth, fluorescence, 24 h
Assay: growth inhibition of wild-type GFP E. coli, dose response, H69 mutant RFP, cherry-pick (AID 977621);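 also: wild-type GFP and H69 mutant RFP strains grown together 50/50 in each well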
[1] = E. coli mixed culture, 24 h, measured here: total growth OD600, test 2

Row | SMILES | AC50 | AC50 [1]
1 | O=C(Cc1ccc(NC(=O)C2CCCN(C(=O)CCc3ccccc3)C2)cc1)Nc1cccc(C(=O)N2CCCC2)c1 (centres undefined) | > 100 µM (inactive) | > 100 µM
2 | c1ccc(CN2CCN(C3CCCSc4ccccc43)CC2)cc1 (centres undefined) | > 100 µM (inactive) | 49.8 µM
3 | O=[N+]([O-])c1ccc2nc(-c3ccccc3[N+](=O)[O-])[nH]c2c1 | > 100 µM (inactive) | > 100 µM
4 | CSc1nc(SC(C)C(=O)O)c2c3c(sc2n1)COC(C)(C)C3 (centres undefined) | > 100 µM (inactive) | 
5 | CC(C)(C)c1ccc(N2C(=O)CSC2c2cccnc2)cc1 (centres undefined) |  | > 100 µM
6 | N#Cc1ccccc1CSc1nc2ccc(NC(=O)c3ccccc3C(=O)O)cc2s1 | > 100 µM (inactive) | 
7 | O=C(CSc1nc2ccccc2[nH]1)Nc1cccc(S(=O)(=O)N2CCOCC2)c1 | > 100 µM (inactive) | 33.9 µM
8 | CN(c1ccccc1)S(=O)(=O)c1cccc(C(=O)OCC(=O)NCc2ccco2)c1 | > 100 µM (inactive) | 
9 | Cc1ccc(CNC(=O)c2ccc(Br)o2)cc1 | > 100 µM (inactive) | 
10 | O=S(=O)(c1ccccc1)N1CCN=C1SCc1cccc(Cl)c1 | > 100 µM (inactive) | 35.9 µM
11 | CCN(C(=O)COC(=O)c1cn(-c2ccccc2)nc1-c1ccccc1)C1CCS(=O)(=O)C1 (centres undefined) |  | > 100 µM
12 | Cc1cc(C)cc(NC(=O)c2cccc(NC(=O)c3ccco3)c2)c1 |  | 45.6 µM
13 | CCOC(=O)c1cc2sccc2n1CCCN1C(=O)c2ccccc2C1=O | > 100 µM (inactive) | > 100 µM
14 | CC1Cc2cc(S(=O)(=O)N3CCN(c4cccc(Cl)c4)CC3)ccc2N1C(=O)C1CC1 (centres undefined) |  | > 100 µM
15 | O=C(CC(=O)c1cccs1)c1ccncc1 | > 100 µM (inactive) | 
16 | COc1ccc(CCNc2nc(-c3ccncc3)cs2)cc1OC | > 100 µM (inactive) | 
17 | O=C(CCc1nc2ccccc2s1)OCC(=O)c1ccc[nH]1 | > 100 µM (inactive) | 
18 | O=C1c2ccccc2S(=O)(=O)c2cc(N3CCC(C(=O)N4CCCCC4)CC3)ccc21 | > 100 µM (inactive) | 
19 | CCc1ccc(CN2CCCC(CNS(=O)(=O)c3ccc(OC)cc3)C2)cc1 (centres undefined) |  | > 100 µM
20 | O=C(CSc1nnc(-c2ccccc2F)n1C1CC1)Nc1cccnc1Cl |  | > 100 µM
21 | CC1CCCC(NC(=O)COC(=O)Cc2c[nH]c3ccccc23)C1C (centres undefined) |  | > 100 µM
22 | O=c1[nH]nc(SCc2ccccc2)n1C1CC2C=CC1C2 (centres undefined) |  | 40.6 µM

Row | SMILES | AC50 | AC50 [1]
23 | CSc1ccccc1C(=O)NCCc1ccc(S(=O)(=O)N2CCCCC2)cc1 | > 100 µM (inactive) | 
24 | CCOc1ccccc1OCCCC(=O)N1CCN(S(=O)(=O)c2cc(F)ccc2F)CC1 | > 100 µM (inactive) | 
25 | NC(=O)c1ccsc1NC(=O)COC(=O)CSc1ccc(Cl)cc1 | > 100 µM (inactive) | > 100 µM
26 | COc1ccc(NC(=O)c2oc3ccccc3c2NC(=O)C2CCCO2)cc1OC (centres undefined) | > 100 µM (inactive) | 
27 | O=C(C[C@H]1CC[C@H]2[C@@H](COC[C@@H](O)CN2C(=O)Nc2ccc(Cl)cc2)O1)N1CCCCC1 | > 100 µM (inactive) | 
28 | Cc1onc(-c2ccccc2Cl)c1C(=O)N[C@@H](C)c1ccccc1 | > 100 µM (inactive) | > 100 µM
29 | CCN(CC(=O)Nc1ccccc1OC)CC(=O)Nc1c(Cl)ccc(C)c1Cl | > 100 µM (inactive) | 
30 | Cc1sc2ncnc(N3CCCC(C)C3)c2c1C (centres undefined) | > 100 µM (inactive) | 
31 | COc1cccc(C(=O)NC(C)c2ccc(Br)cc2)c1 (centres undefined) |  | > 100 µM
32 | O=C1OC[C@@H]2CCCN2C(=O)[C@@H](CC(=O)N(CCO)Cc2ccccc2)C/C=C\C[C@H]1Cc1ccc(F)cc1 |  | > 100 µM
33 | Cc1noc(C)c1NC(=O)Nc1ccc2c(c1)C(=O)N([C@@H](C)CO)C[C@H](C)[C@H](CN(C)C(=O)Nc1ccc3c(c1)OCO3)OCCCC[C@H](C)O2 | > 100 µM (inactive) | 
34 | CSc1ccccc1NC(=O)CN(C)CC(=O)c1c(C)[nH]c2ccccc12 | > 100 µM (inactive) | 46.2 µM
35 | Cc1ccc(S(=O)(=O)Nc2ccc3c(c2)C(=O)N([C@H](C)CO)C[C@@H](C)[C@H](CN(C)C(=O)c2ccccc2)OCCCC[C@@H](C)O3)cc1 |  | > 100 µM
36 | NS(=O)(=O)c1cccc(NC(=O)c2cccc(-c3ccc(O)cc3)c2)c1 | > 100 µM (inactive) | 
37 | CC(=O)Nc1ccc(OCC(=O)N2CCC(Cc3ccccc3)CC2)cc1 |  | > 100 µM
38 | C[C@@H]1CCCCO[C@@H](CN(C)C(=O)c2ccccc2)[C@H](C)CN([C@@H](C)CO)C(=O)c2cc(NC(=O)c3ccccc3)ccc2O1 | > 100 µM (inactive) | 
39 | Cc1cc(C(=O)COC(=O)CNC(=O)c2ccccc2)c(C)n1CC1CCCO1 (centres undefined) |  | > 100 µM
40 | N#CC1CN(Cc2ccccc2)CN(Cc2ccccc2)C1 | > 100 µM (inactive) | 
41 | COc1ccc(CNS(=O)(=O)c2ccc3c(c2)NC(=O)C(C)S3)cc1 (centres undefined) | > 100 µM (inactive) | 
42 | O=C(Nc1ccc(F)c(Cl)c1)C1CC2CCC1C2 (centres undefined) |  | > 100 µM
43 | CCOc1ccccc1N1CC(C(=O)Nc2cccc(S(=O)(=O)N3CCCCC3)c2)CC1=O (centres undefined) |  | > 100 µM
44 | COc1ccc(NS(=O)(=O)c2ccc(Cl)c(NC(=O)c3ccccc3F)c2)cc1 | > 100 µM (inactive) | 

Row | SMILES | AC50 | AC50 [1]
45 | CC(C)(C)N(Cc1ccccc1)C(=O)CN1C(=O)c2ccccc2S1(=O)=O | > 100 µM (inactive) | 
46 | O=c1[nH]c(C2CCN(S(=O)(=O)c3ccc4c(c3)OCCO4)CC2)nc2c1nnn2Cc1ccccc1F | > 100 µM (inactive) | 
47 | COc1cc(OC)c(NS(=O)(=O)c2cccc(C(=O)OCC(=O)NCC3CCCO3)c2)cc1Cl (centres undefined) |  | > 100 µM
48 | COc1ccc(NC(=O)CN(c2ccccc2OC)S(=O)(=O)c2cccs2)cc1Cl |  | > 100 µM
49 | C=CCn1c(CCSCc2ccc(OC)c(C)c2)n[nH]c1=S | > 100 µM (inactive) | 33.6 µM
50 | CCn1ncc(Br)c1C(=O)Nc1ccc2c(c1)OCCO2 | > 100 µM (inactive) | 
51 | CSCCC(=O)Nc1nc(-c2ccccn2)cs1 | > 100 µM (inactive) | 
52 | CCC(C(=O)Nc1ccsc1C(=O)OC)c1ccccc1 (centres undefined) |  | 49.2 µM
53 | N#Cc1nc(Cc2ccccc2)oc1N1CCCC1 | > 100 µM (inactive) | 
54 | CCCCNC(=O)c1onc(CSc2cc(C)cc(C)c2)c1C(=O)O |  | 34.2 µM
55 | CCc1nnc(NS(=O)(=O)c2ccc(NC(=O)c3cc(Cl)ccc3[N+](=O)[O-])cc2)s1 |  | 51.9 µM
56 | O=C1NC(=O)C2(Cc3cc([N+](=O)[O-])ccc3N3CCN(C(=O)c4ccccc4)CC32)C(=O)N1 (centres undefined) | > 100 µM (inactive) | 
57 | Cc1ccsc1C(=O)N1CCCC(C(=O)c2cc(F)ccc2F)C1 (centres undefined) | > 100 µM (inactive) | > 100 µM
58 | CN1OC[C@@H]2CN(C(=O)c3ccco3)[C@H](c3ccc(-c4ccc(C#N)cc4)cc3)C[C@@H]21 |  | > 100 µM
59 | CN(C)CCCNc1ccc(-c2cc(Nc3cccc(Cl)c3)ncn2)cn1 | > 100 µM (inactive) | > 100 µM
60 | CCCCC(=O)N1CCN(c2nc3ccc(Br)cc3s2)CC1 | > 100 µM (inactive) | 31 µM
61 | COc1cccc(-c2ccc([C@@H]3[C@H](CO)N4CCCCN(S(=O)(=O)c5cccs5)C[C@@H]34)cc2)c1 | > 100 µM (inactive) | 33.5 µM
62 | COc1ccc(NS(=O)(=O)c2ccc(NC(=O)c3ccccc3Br)cc2)nn1 | > 100 µM (inactive) | 
63 | Cn1cnc(CCNC(=O)C[C@H]2CC[C@@H]3[C@H](COC[C@H](O)CN3C(=O)Nc3ccc(Cl)cc3)O2)c1 | > 100 µM (inactive) | 
64 | CCCC[n+]1ccn(-c2nc3ccccc3nc2[N-]S(=O)(=O)c2cccs2)c1 | > 100 µM (inactive) | > 100 µM
